# According to ChEMBL document CHEMBL1201862, “PubChem BioAssay data set” (2004):
#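 Assay format: 96-well plates, 48-hour exposure. At the GI50, growth is halved.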 Calls of active or inactive are those of the source. Cut-off read from the data, not from the text of the source: active = GI50 up to about 1.1 µM and inactive = higher.
# Experiments:
# Assay in all cases: growth of human tumour cells (NCI), 48 h
# 786-0 = tested on: 786-0
# ACHN = tested on: ACHN
# CCRF-CEM = tested on: CCRF-CEM
# COLO 205 = tested on: COLO 205
# HCT-116 = tested on: HCT-116
# HCT-15 = tested on: HCT-15
# LOX IMVI = tested on: LOX IMVI
# M14 = tested on: M14
# MOLT-4 = tested on: MOLT-4
# NCI-H23 = tested on: NCI-H23
# NCI-H460 = tested on: NCI-H460
# OVCAR-4 = tested on: OVCAR-4
# RXF 393 = tested on: RXF 393
# SF-295 = tested on: SF-295
# SK-MEL-28 = tested on: SK-MEL-28
# SK-MEL-2 = tested on: SK-MEL-2
# SK-OV-3 = tested on: SK-OV-3
# SN12C = tested on: SN12C
# TK-10 = tested on: TK-10
# HL-60 = tested on: HL-60
SMILES,GI50 (786-0),GI50 (ACHN),GI50 (CCRF-CEM),GI50 (COLO 205),GI50 (HCT-116),GI50 (HCT-15),GI50 (LOX IMVI),GI50 (M14),GI50 (MOLT-4),GI50 (NCI-H23),GI50 (NCI-H460),GI50 (OVCAR-4),GI50 (RXF 393),GI50 (SF-295),GI50 (SK-MEL-28),GI50 (SK-MEL-2),GI50 (SK-OV-3),GI50 (SN12C),GI50 (TK-10),GI50 (HL-60)
Cc1ccccc1NC(=O)CSc1nnc(Cc2ccccc2)o1,> 100 µM (inactive),> 100 µM (inactive),> 100 µM (inactive),> 100 µM (inactive),> 100 µM (inactive),> 100 µM,> 100 µM (inactive),> 100 µM (inactive),> 100 µM (inactive),> 100 µM (inactive),> 100 µM (inactive),> 100 µM (inactive),> 100 µM (inactive),> 100 µM (inactive),> 100 µM (inactive),> 100 µM (inactive),> 100 µM (inactive),> 100 µM (inactive),> 100 µM (inactive),
O=c1oc(-c2ccc(O)c(O)c2)cc2cccc(O)c12 [THUNBERGINOL A],19.6 µM (inactive),21.4 µM (inactive),0.998 µM (active),10.5 µM (inactive),10.3 µM (inactive),4.99 µM,,19.5 µM (inactive),3.42 µM (inactive),16.1 µM (inactive),13.4 µM (inactive),20.1 µM (inactive),18.9 µM (inactive),27.5 µM (inactive),,26.1 µM (inactive),29.4 µM (inactive),14.4 µM (inactive),4.9 µM (inactive),17.1 µM (inactive)
Clc1ccc(CCn2ccc3ccccc32)c(Cl)c1,> 100 µM (inactive),> 100 µM (inactive),> 100 µM (inactive),> 100 µM (inactive),> 100 µM (inactive),> 100 µM,,> 100 µM (inactive),> 100 µM (inactive),> 100 µM (inactive),> 100 µM (inactive),> 100 µM (inactive),> 100 µM (inactive),> 100 µM (inactive),,> 100 µM (inactive),> 100 µM (inactive),> 100 µM (inactive),> 100 µM (inactive),> 100 µM (inactive)
Cc1ccc(S(=O)(=O)OCCOCCOCCOCCOCCOS(=O)(=O)c2ccc(C)cc2)cc1,62.8 µM (inactive),36.6 µM (inactive),21.4 µM (inactive),17.2 µM (inactive),52.5 µM (inactive),55.6 µM,45.2 µM (inactive),45.1 µM (inactive),14.4 µM (inactive),21.3 µM (inactive),36.7 µM (inactive),51.3 µM (inactive),> 100 µM (inactive),50.7 µM (inactive),> 100 µM (inactive),41.5 µM (inactive),> 100 µM (inactive),39.7 µM (inactive),36.7 µM (inactive),
O=C1NC(c2cccc3ccccc23)Nc2ccccc21 (stereo not given),0.0593 µM (active),0.0708 µM (active),0.01 µM (active),0.0458 µM (active),0.0336 µM (active),< 0.0224 µM,0.0906 µM (active),0.0298 µM (active),0.0528 µM (active),0.0931 µM (active),0.0506 µM (active),0.00931 µM (active),0.0302 µM (active),< 0.0202 µM (active),0.127 µM (active),0.04 µM (active),0.0362 µM (active),0.132 µM (active),0.157 µM (active),
COc1ccc(C(=O)c2c3cc(OC)c(OC)c(OC)c3cc[n+]2C)cc1,18.6 µM (inactive),26.5 µM (inactive),20.9 µM (inactive),,28 µM (inactive),,,29.6 µM (inactive),20.5 µM (inactive),23.7 µM (inactive),31.6 µM (inactive),,39.6 µM (inactive),,28.5 µM (inactive),21.1 µM (inactive),38.4 µM (inactive),31.8 µM (inactive),46.5 µM (inactive),
CN(c1ccc(C(=O)c2ccc(N(C)S(C)(=O)=O)cc2)cc1)S(C)(=O)=O,> 100 µM (inactive),77.8 µM (inactive),> 100 µM (inactive),> 100 µM (inactive),> 100 µM (inactive),,,,47 µM (inactive),34.5 µM (inactive),> 100 µM (inactive),> 100 µM (inactive),,78.2 µM (inactive),54.6 µM (inactive),> 100 µM (inactive),> 100 µM (inactive),> 100 µM (inactive),> 100 µM (inactive),76.4 µM (inactive)
CC(C)N(C(=O)C1(O)c2ccccc2C=Cc2ccccc21)C(C)C,20.6 µM (inactive),16.1 µM (inactive),,19.3 µM (inactive),17.5 µM (inactive),21.1 µM,,19 µM (inactive),23.7 µM (inactive),17.6 µM (inactive),,22.5 µM (inactive),,17.8 µM (inactive),17.2 µM (inactive),17.1 µM (inactive),25.3 µM (inactive),16.3 µM (inactive),18 µM (inactive),1.92 µM (inactive)
N[C@]1(C(=O)O)C[C@@H]2C(Br)=NO[C@@H]2C1,> 100 µM (inactive),> 100 µM (inactive),,> 100 µM (inactive),56 µM (inactive),76.9 µM,,> 100 µM (inactive),> 100 µM (inactive),> 100 µM (inactive),55.7 µM (inactive),> 100 µM (inactive),> 100 µM (inactive),> 100 µM (inactive),,> 100 µM (inactive),> 100 µM (inactive),,> 100 µM (inactive),> 100 µM (inactive)
CC1OC1C(=O)P(=O)(O)O (stereo not given),,> 100 µM (inactive),> 100 µM (inactive),> 100 µM (inactive),> 100 µM (inactive),> 100 µM,> 100 µM (inactive),> 100 µM (inactive),> 100 µM (inactive),> 100 µM (inactive),> 100 µM (inactive),> 100 µM (inactive),,> 100 µM (inactive),> 100 µM (inactive),> 100 µM (inactive),> 100 µM (inactive),> 100 µM (inactive),> 100 µM (inactive),> 100 µM (inactive)
O=C1Oc2ccccc2C(=O)/C1=C\NC(=S)c1ccncc1,> 100 µM (inactive),53.3 µM (inactive),,> 100 µM (inactive),> 100 µM (inactive),69.3 µM,> 100 µM (inactive),> 100 µM (inactive),95.1 µM (inactive),> 100 µM (inactive),57.7 µM (inactive),> 100 µM (inactive),,> 100 µM (inactive),45.9 µM (inactive),42.3 µM (inactive),> 100 µM (inactive),> 100 µM (inactive),> 100 µM (inactive),3.35 µM (inactive)
COc1ccc2c(c1)-c1oc3ccccc3c(=O)c1CO2,31.7 µM (inactive),28.1 µM (inactive),20.5 µM (inactive),31.4 µM (inactive),28.8 µM (inactive),24.9 µM,21.6 µM (inactive),57.7 µM (inactive),28.1 µM (inactive),89.5 µM (inactive),,,,69 µM (inactive),,26.3 µM (inactive),35.4 µM (inactive),32.7 µM (inactive),45.2 µM (inactive),
COC1OC2COC1(OC)C1OC(C)(C)OC21 (stereo not given),> 100 µM (inactive),> 100 µM (inactive),> 100 µM (inactive),> 100 µM (inactive),> 100 µM (inactive),> 100 µM,,> 100 µM (inactive),> 100 µM (inactive),> 100 µM (inactive),> 100 µM (inactive),> 100 µM (inactive),> 100 µM (inactive),> 100 µM (inactive),> 100 µM (inactive),> 100 µM (inactive),> 100 µM (inactive),> 100 µM (inactive),> 100 µM (inactive),
CN(C)CC(CO)(CN(C)C)CN(C)C,> 100 µM (inactive),> 100 µM (inactive),> 100 µM (inactive),> 100 µM (inactive),> 100 µM (inactive),> 100 µM,,> 100 µM (inactive),> 100 µM (inactive),> 100 µM (inactive),> 100 µM (inactive),> 100 µM (inactive),> 100 µM (inactive),> 100 µM (inactive),> 100 µM (inactive),,> 100 µM (inactive),> 100 µM (inactive),> 100 µM (inactive),> 100 µM (inactive)
O=[N+]([O-])c1ccc(C2=NOC(c3ccccc3F)N2C23CC4CC(CC(C4)C2)C3)cc1 (stereo not given),> 100 µM (inactive),> 100 µM (inactive),> 100 µM (inactive),> 100 µM (inactive),> 100 µM (inactive),> 100 µM,> 100 µM (inactive),> 100 µM (inactive),> 100 µM (inactive),> 100 µM (inactive),> 100 µM (inactive),> 100 µM (inactive),,> 100 µM (inactive),> 100 µM (inactive),> 100 µM (inactive),> 100 µM (inactive),> 100 µM (inactive),> 100 µM (inactive),25.9 µM (inactive)
N#C/C(=C\c1ccc2ccccc2c1)c1ccccc1,18.9 µM (inactive),18.7 µM (inactive),32.5 µM (inactive),17.8 µM (inactive),30.3 µM (inactive),23.6 µM,53.3 µM (inactive),19.5 µM (inactive),39.5 µM (inactive),> 100 µM (inactive),17.1 µM (inactive),29.6 µM (inactive),38.8 µM (inactive),20.2 µM (inactive),45.4 µM (inactive),25.8 µM (inactive),26.3 µM (inactive),39.8 µM (inactive),34.3 µM (inactive),
